# Patent US4940705A, “N-substituted derivatives of 1-desoxynojirimycin and 1-desoxymannonojirimycin and pharmaceutical use” (Bayer Aktiengesellschaft, priority 1987, dated 1990)
# Experiments:
# Visna virus = Visna virus test: inhibition of virus-induced cytopathic effect / virus multiplication in infected cell cultures; type: cell-based; details: Visna-maedi virus, 168 h, sheep fibroblast cells, 7 days at 37° C., Table 1, read-out: 2 MIC (minimum concentration at which an inhibition of virus multiplication was still observed)
# Description: In cell cultures which are infected with Visna virus, pronounced virus-induced, cytopathic effects appear 5 to 10 days after infection. By treatment of the infected cell cultures with the compounds according to the invention, the appearance of these cytopathic effects could be prevented.
# (§1) The Visna virus test was carried out by the method of O. Narayan et al., Journal of Infectious Diseases 135, 5, 1977, 800-806. For this, the compounds according to the invention were diluted to non-cytotoxic concentrations in culture medium in 96-well microtiter plates. Subsequently, sheep fibroblast cells (5×10^4 cells per well) in production medium were added to each well. Each well then contained 50 μl of a Visna virus solution having a titre of about 2.5×10^4TCID50 (TCID=tissue culture infectious dose). This virus dose corresponds to an MOI (multiplicity of infection) of about 0.05.
# The infected and treated cells and the controlled cells were incubated for 7 days at 37° C. and 5% CO2.
# On appearance of the virus-induced cytopathogenic effect in the untreated virus control, the cultures were fixed using formalin and subsequently stained with a Giemsa solution.
# (§2) Herein, MCC denotes cytotoxicity and MIC denotes the minimum concentration at which an inhibition of virus multiplication was still observed.
# Cytotoxicity (MCC) = type: cell-based; details: sheep, sheep fibroblast cells; MCC denotes cytotoxicity; Table 1
# Description: as §1, §2
SMILES,MIC (Visna virus) [µg/mL],MCC (Cytotoxicity (MCC)) [µg/mL]
"O=C(CCN1C[C@@H](O)[C@@H](O)[C@H](O)[C@H]1CO)Nc1ccc(OC(F)(F)C(F)Cl)cc1 (stereo partly drawn) [Example 53, N-[4-(2-Chloro-1,1,2-trifluoroethoxy)phenyl]-3-(1,5-didesoxy-1,5-imino-D-mannit-N-yl)propionamide]",250,500
"CC(C)c1ccc(NC(=O)CCN2C[C@@H](O)[C@@H](O)[C@H](O)[C@H]2CO)cc1 [Example 54, N-(4-Isopropylphenyl)-3-(1,5-didesoxy-1,5-imino-D-mannit-N-yl)propionamide]",250,1000
"CC(C)c1ccccc1NC(=O)CCN1C[C@@H](O)[C@@H](O)[C@H](O)[C@H]1CO [Example 55, N-(2-Isopropylphenyl)-3-(1,5-didesoxy-1,5-imino-D-mannit-N-yl)propionamide]",250,1000
"O=C(CCN1C[C@@H](O)[C@@H](O)[C@H](O)[C@H]1CO)Nc1ccc(F)c(F)c1 [Example 60, N-(3,4-Difluorophenyl)-3-(1,5-didesoxy-1,5-imino-D-mannit-n-yl)propionamide]",500,> 1000
"COc1cc(NC(=O)CCN2C[C@@H](O)[C@@H](O)[C@H](O)[C@H]2CO)cc(OC)c1 [Example 66, N-(3,5-Dimethoxyphenyl)-3-(1,5-didesoxy-1,5-imino-D-mannit-N-yl)propionamide]",500,1000
"N#Cc1cccc(NC(=O)CCN2C[C@@H](O)[C@@H](O)[C@H](O)[C@H]2CO)c1 [Example 68, N-(3-Cyanophenyl)-3-(1,5-didesoxy-1,5-imino-D-mannit-N-yl)propionamide]",250,500
"O=C(CCN1C[C@@H](O)[C@@H](O)[C@H](O)[C@H]1CO)Nc1ccc2c(c1)OCO2 [Example 72, N-(3,4-Methylenedioxyphenyl)-3-(1,5-didesoxy-1,5-imino-N-yl)propionamide]",500,> 1000
"CCOc1ccc(NC(=O)CCN2C[C@@H](O)[C@@H](O)[C@H](O)[C@H]2CO)cc1 [Example 76, N-(4-Ethoxyphenyl)-3-(1,5-didesoxy-1,5-imino-D-mannit-N-yl)propionamide]",500,> 1000
"O=C(CCN1C[C@@H](O)[C@@H](O)[C@H](O)[C@H]1CO)N1CCN(c2ccc(F)cc2)CC1 [Example 82, 3-(1,5-Didesoxy-1,5-imino-D-mannit-N-yl)-propionyl-1-(4-p-fluorophenyl)piperazine]",500,> 1000
"Cc1ccc(N2CCN(C(=O)CCN3C[C@H](O)[C@@H](O)[C@H](O)[C@H]3CO)CC2)cc1 [Example 87, 3-(1,5-Didesoxy-1,5-imino-D-glucit-N-yl)-propionyl-1-(4-tolyl)piperazine]",250,> 1000
"O=C(CCN1C[C@H](O)[C@@H](O)[C@H](O)[C@H]1CO)NCc1ccc(C(F)(F)F)cc1 [Example 89, N-(4-Trifluoromethylbenzyl)-3-(1,5-didesoxy-1,5-imino-D-glucit-N-yl)propionamide]",500,1000
O=C(CCN1C[C@H](O)[C@@H](O)[C@H](O)[C@H]1CO)NCC(=O)c1ccccc1 [Example 90],250,1000
"O=C(CCN1C[C@H](O)[C@@H](O)[C@H](O)[C@H]1CO)N1CCN(c2ccccc2F)CC1 [Example 92, 3-(1,5-Didesoxy-1,5-imino-D-glucit-N-yl)propionyl-1-(4-2-fluorophenyl)piperazine]",250,> 1000
"Cc1cccc(N2CCN(C(=O)CCN3C[C@H](O)[C@@H](O)[C@H](O)[C@H]3CO)CC2)c1 [Example 93, 3-(1,5-Didesoxy-1,5-imino-D-glucit-N-yl)propionyl-1-(3-methylphenyl)piperazine]",500,> 1000
"O=C(CCN1C[C@H](O)[C@@H](O)[C@H](O)[C@H]1CO)N1CCN(c2ccccc2[N+](=O)[O-])CC1 [Example 94, 3-(1,5-Didesoxy-1,5-imino-D-glucit-N-yl)propionyl-1-(4-2-nitrophenyl)piperazine]",500,> 1000
"Cc1ccccc1N1CCN(C(=O)CCN2C[C@H](O)[C@@H](O)[C@H](O)[C@H]2CO)CC1 [Example 96, 3-(1,5-Didesoxy-1,5-imino-D-glucit-N-yl)propionyl-1-(4-2-methylphenyl)piperazine]",500,> 1000
"O=C(CCN1C[C@H](O)[C@@H](O)[C@H](O)[C@H]1CO)N1CCN(c2ncccn2)CC1 [Example 99, 3-(1,5-Didesoxy-1,5-imino-D-glucit-N-yl)-propionyl-1-(4-[2-pyrimidyl])piperazine]",125,> 1000
"O=C(CCN1C[C@H](O)[C@@H](O)[C@H](O)[C@H]1CO)N1CCSCC1 [Example 100, 3-(1,5-Didesoxy-1,5-imino-D-glucit-N-yl)propionyl-1-thiomorpholide]",500,> 1000
"O=C(CCN1C[C@H](O)[C@@H](O)[C@H](O)[C@H]1CO)NCc1cccs1 [Example 101, N-[(Thiophen-2-yl)-methyl]-3-(1,5-didesoxy-1,5-imino-D-glucit-N-yl)propionamide]",125,1000
"C[C@H](NC(=O)CCN1C[C@H](O)[C@@H](O)[C@H](O)[C@H]1CO)c1ccccc1 [Example 102, N-[(1S)-1-Phenethyl]-3-(1,5-didesoxy-1,5-imino-D-glucit-N-yl)propionamide]",125,> 1000
C[C@@H](NC(=O)CCN1C[C@H](O)[C@@H](O)[C@H](O)[C@H]1CO)c1ccccc1 [Example 103],125,> 1000
"CCCCNC(=O)CCN1C[C@H](O)[C@@H](O)[C@H](O)[C@H]1CO [Example 104, N-Butyl-3-(1,5-didesoxy-1,5-imino-D-glucit-N-yl)propionamide]",250,> 1000
"O=C(O)CCCN1C[C@H](O)[C@@H](O)[C@H](O)[C@H]1CO [Example 107, 4-(1,5-Didesoxy-1,5-imino-D-glucit-N-yl)butanoic acid]",500,> 1000
